Drawing on ChEMBL document CHEMBL1131736, “Lipase-catalyzed protection of the hydroxy groups of the nucleosides inosine and 2'-deoxyinosine: a new chemoenzymatic synthesis of the antiviral drug 2',3'-dideoxyinosine” (Bioorg Med Chem Lett, 1999), this text covers Activity for 1 compound.

This experiment has as its system Human immunodeficiency virus 1. Kind of experiment: Compound was tested for antiretroviral activity against HIV; compound found active. The format is functional, organism-based.

Active and inactive are the calls of the source. No cut-off for these calls is given here.

Turning to `O=c1[nH]cnc2c1ncn2[C@H]1CC[C@@H](CO)O1`, the result was Active.
